Measured values reported in ChEMBL document CHEMBL1151203, “Phelligridins C-F: cytotoxic pyrano[4,3-c][2]benzopyran-1,6-dione and furo[3,2-c]pyran-4-one derivatives from the fungus Phellinus igniarius” (J Nat Prod, 2004).

Legend:
Type in all cases: functional, cell-based
KETR3 = assay: Cytotoxicity against human Ketr3 cells after 96 hrs by MTT assay; settings: KETR3, 96 h
A549 = assay: Cytotoxicity against human A549 cells after 96 hrs by MTT assay; settings: A549, 96 h
BGC-823 = assay: Cytotoxicity against human BGC823 cells after 96 hrs by MTT assay; settings: BGC-823, 96 h
MCF7 = assay: Cytotoxicity against human MCF7 cells after 96 hrs by MTT assay; settings: MCF7, 96 h
Bel-7402 = assay: Cytotoxicity against human Bel7402 cells after 96 hrs by MTT assay; settings: Bel-7402, 96 h
HCT-8 = assay: Cytotoxicity against human HCT8 cells after 96 hrs by MTT assay; settings: HCT-8, 96 h

Work on `CC(=O)/C=C/c1ccc(O)c(O)c1` yielded an IC50 (KETR3) of 0.245 µM, an IC50 (A549) greater than 280 µM and an IC50 (BGC-823) of 243 µM. It also gave an IC50 (MCF7) of 141 µM, an IC50 (Bel-7402) of 153 µM and an IC50 (HCT-8) of 227 µM.
For `CC(=O)/C=C(O)/C=C/c1ccc(O)c(O)c1` [HISPOLON], the IC50 (KETR3) was 0.206 µM, the IC50 (A549) was 183 µM and the IC50 (BGC-823) was 205 µM. For the same compound, the IC50 (MCF7) was 25 µM, the IC50 (Bel-7402) was 38 µM and the IC50 (HCT-8) was 199 µM.
In the case of `CC1=CC(=O)C2(O1)c1c(cc(/C=C/c3ccc(O)c(O)c3)oc1=O)OC2c1ccc(O)c(O)c1` (stereo not given) [INOSCAVIN A], the IC50 (KETR3) is reported as greater than 0.108 µM, the IC50 (A549) is reported as greater than 108 µM and the IC50 (BGC-823) is reported as greater than 108 µM. It also gave an IC50 (MCF7) greater than 108 µM, an IC50 (Bel-7402) of 88 µM and an IC50 (HCT-8) greater than 108 µM.
For `Cc1cc2oc(=O)c3cc(O)c(O)cc3c2c(=O)o1` [PHELLIGRIDIN A], the IC50 (KETR3) was greater than 0.192 µM, the IC50 (A549) was greater than 192 µM and the IC50 (BGC-823) was 181 µM. For the same compound, the IC50 (MCF7) was 109 µM, the IC50 (Bel-7402) was 110 µM and the IC50 (HCT-8) was greater than 192 µM.
`COC(=O)c1c(O)cc(/C=C/c2ccc(O)c(O)c2)oc1=O` [PHELLIGRIDIN B] showed an IC50 (KETR3) of 0.144 µM, an IC50 (A549) greater than 164 µM and an IC50 (BGC-823) of 146 µM. The IC50 (MCF7) was 143 µM, the IC50 (Bel-7402) was 50 µM and the IC50 (HCT-8) was 139 µM.
With `O=c1oc2cc(/C=C/c3ccc(O)cc3)oc(=O)c2c2cc(O)c(O)cc12` [PHELLIGRIDIN C] the IC50 (KETR3) was 0.094 µM, the IC50 (A549) was 12 µM and the IC50 (BGC-823) was greater than 137 µM. It also gave an IC50 (MCF7) of 72 µM, an IC50 (Bel-7402) of 10 µM and an IC50 (HCT-8) of 126 µM.
`O=c1oc2cc(/C=C/c3ccc(O)c(O)c3)oc(=O)c2c2cc(O)c(O)cc12` [PHELLIGRIDIN D] was tested, and the IC50 (KETR3) was 0.09 µM, the IC50 (A549) was 16 µM and the IC50 (BGC-823) was greater than 131 µM. For the same compound, the IC50 (MCF7) was 37 µM, the IC50 (Bel-7402) was 8 µM and the IC50 (HCT-8) was 99 µM.
Compound `CC1=CC(=O)C2(O1)C(c1cc3oc(=O)c4cc(O)c(O)cc4c3c(=O)o1)=Cc1cc(O)c(O)cc12` (stereo not given) [PHELLIGRIDIN E] has an IC50 (KETR3) greater than 0.105 µM, an IC50 (A549) of 79 µM and an IC50 (BGC-823) of 96 µM. It also gave an IC50 (MCF7) of 70 µM, an IC50 (Bel-7402) of 55 µM and an IC50 (HCT-8) greater than 105 µM.
Work on `COC1(CC(C)=O)Oc2cc(/C=C/c3ccc(O)c(O)c3)oc(=O)c2/C1=C/c1ccc(O)c(O)c1` (stereo not given) [PHELLIGRIDIN F] yielded an IC50 (KETR3) greater than 0.104 µM, an IC50 (A549) of 84 µM and an IC50 (BGC-823) of 92 µM. For the same compound, the IC50 (MCF7) was 85 µM, the IC50 (Bel-7402) was 46 µM and the IC50 (HCT-8) was greater than 104 µM.
For `CC[C@@]1(O)C(=O)OCc2c1cc1n(c2=O)Cc2cc3c(CN(C)C)c(O)ccc3nc2-1` [TOPOTECAN], the IC50 (KETR3) was 0.0049 µM, the IC50 (A549) was 3.2 µM and the IC50 (BGC-823) was 4.3 µM. The IC50 (MCF7) was 1.8 µM, the IC50 (Bel-7402) was 1.2 µM and the IC50 (HCT-8) was 1.5 µM.
